Values after ≈ are worked out from the molar mass of the structure shown.
How the values were obtained:
Format in all cases: cell-based, Mycobacterium tuberculosis
M. tuberculosis Beijing = assay: Spot culture growth inhibition assay (SPOTi), MIC; conditions: multiresistant to isoniazid and rifampicin
[1] = tested on: M. tuberculosis ATCC 35838; assay: Spot culture growth inhibition assay (SPOTi), MIC; conditions: rifampicin resistant
M. tuberculosis LAM 9 = assay: Spot culture growth inhibition assay (SPOTi), MIC; conditions: multiresistant to isoniazid and rifampicin
M. tuberculosis Orphan = assay: Spot culture growth inhibition assay (SPOTi), MIC; conditions: Mycobacterium tuberculosis; multiresistant to isoniazid and rifampicin
[2] = tested on: M. tuberculosis ATCC 35822; assay: Spot culture growth inhibition assay (SPOTi), MIC; conditions: isoniazid resistant
M. tuberculosis Haarlem = assay: Spot culture growth inhibition assay (SPOTi), MIC; conditions: multiresistant to isoniazid and rifampicin
[3] = tested on: multiresistant M. tuberculosis; conditions: summary of Table 9
[4] = Mycobacterium tuberculosis, ATCC35838
[5] = Mycobacterium tuberculosis, LAM9
[6] = Mycobacterium tuberculosis, ATCC35822

Compound `CC(/C=C/c1cc2cc(C)ccc2[nH]c1=O)=N\NC(N)=S` [Compound 11b, (E)-2-((E)-4-(6-Methyl-2-oxo-1,2-dihydroquinolin-3-yl)but-3-en-2-ylidene)hydrazine-1-carbothioamide] has an MIC (M. tuberculosis Beijing; Mycobacterium tuberculosis) of 1.66 µM (≈ 0.499 µg/mL), an MIC [1, 4] of 3.33 µM (≈ 1 µg/mL) and an MIC (M. tuberculosis LAM 9; [5]) of 16.6 µM (≈ 5 µg/mL). For the same compound, the MIC (M. tuberculosis Orphan) was 33.3 µM (≈ 10 µg/mL), the MIC [2, 6] was 3.33 µM (≈ 1 µg/mL) and the MIC (M. tuberculosis Haarlem; Mycobacterium tuberculosis) was 3.33 µM (≈ 1 µg/mL).

With `CC(/C=C/c1cc2ccc(Cl)cc2[nH]c1=O)=N\NC(N)=S` [Compound 11d, (E)-2-((E)-4-(7-Chloro-2-oxo-1,2-dihydroquinolin-3-yl)but-3-en-2-ylidene)hydrazine-1-carbothioamide] the MIC (M. tuberculosis Beijing; Mycobacterium tuberculosis) was 0.33 µM (≈ 0.106 µg/mL), the MIC [1, 4] was 3.33 µM (≈ 1.07 µg/mL) and the MIC (M. tuberculosis LAM 9; [5]) was 3.12 µM (≈ 1 µg/mL). The MIC (M. tuberculosis Orphan) was 6.23 µM (≈ 2 µg/mL), the MIC [2, 6] was 6.23 µM (≈ 2 µg/mL) and the MIC (M. tuberculosis Haarlem; Mycobacterium tuberculosis) was 1.56 µM (≈ 0.5 µg/mL).

In the case of `CC(/C=C/c1cc2cccc(C)c2[nH]c1=O)=N\NC(N)=S` [Compound 11c, (E)-2-((E)-4-(8-Methyl-2-oxo-1,2-dihydroquinolin-3-yl)but-3-en-2-ylidene)hydrazine-1-carbothioamide], the MIC (M. tuberculosis Beijing; Mycobacterium tuberculosis) is reported as 0.33 µM (≈ 0.0991 µg/mL), the MIC [1, 4] is reported as 1.66 µM (≈ 0.499 µg/mL) and the MIC (M. tuberculosis LAM 9; [5]) is reported as 3.29 µM (≈ 0.988 µg/mL). The MIC (M. tuberculosis Orphan) was 66.6 µM (≈ 20 µg/mL), the MIC [2, 6] was 0.33 µM (≈ 0.0991 µg/mL) and the MIC (M. tuberculosis Haarlem; Mycobacterium tuberculosis) was 33.3 µM (≈ 10 µg/mL).

For `CC(/C=C/c1cc2cc(Br)ccc2[nH]c1=O)=N\NC(N)=S` [Compound 11e, (E)-2-((E)-4-(6-Bromo-2-oxo-1,2-dihydroquinolin-3-yl)but-3-en-2-ylidene)hydrazine-1-carbothioamide], the MIC (M. tuberculosis Beijing; Mycobacterium tuberculosis) was 0.27 µM (≈ 0.0986 µg/mL), the MIC [1, 4] was 2.73 µM (≈ 0.997 µg/mL) and the MIC (M. tuberculosis LAM 9; [5]) was 2.74 µM (≈ 1 µg/mL). For the same compound, the MIC (M. tuberculosis Orphan) was 27.4 µM (≈ 10 µg/mL), the MIC [2, 6] was 1.37 µM (≈ 0.5 µg/mL) and the MIC (M. tuberculosis Haarlem; Mycobacterium tuberculosis) was 27.4 µM (≈ 10 µg/mL).

`CC1COc2c(N3CCN(C)CC3)c(F)cc3c(=O)c(C(=O)O)cn1c23` (stereo not drawn) [Oxafloxacin, reference compound] was tested, and the “MIC against the different families of multiresistant M. tuberculosis” value [3] was 2.76 µM, the MIC (M. tuberculosis Beijing) was 2.76 µM (≈ 0.997 µg/mL) and the MIC [1] was 2.76 µM (≈ 0.997 µg/mL). For the same compound, the MIC (M. tuberculosis LAM 9) was 2.76 µM (≈ 0.997 µg/mL), the MIC [2] was 2.76 µM (≈ 0.997 µg/mL) and the MIC (M. tuberculosis Haarlem) was 2.76 µM (≈ 0.997 µg/mL).

From publication PMC9854539, “QSAR Studies, Molecular Docking, Molecular Dynamics, Synthesis, and Biological Evaluation of Novel Quinolinone-Based Thiosemicarbazones against Mycobacterium tuberculosis” (Antibiotics, 2022)
